Laboratory results taken from article PMC8347162, “A Cyclic BMP-2 Peptide Upregulates BMP-2 Protein-Induced Cell Signaling in Myogenic Cells” (Polymers, 2021).
Where two headings read alike, the source gives them in different places. Positions of bridges follow the written chain, without caps; N, C: chain ends. Residues, ends and D or L forms follow the SMILES beside them.

Molecular target: T1, BMPRII (Homo sapiens, UniProt Q13873)
T1 construct: purchased R&D
T1 sequence (Q13873 27-151 limits assumed): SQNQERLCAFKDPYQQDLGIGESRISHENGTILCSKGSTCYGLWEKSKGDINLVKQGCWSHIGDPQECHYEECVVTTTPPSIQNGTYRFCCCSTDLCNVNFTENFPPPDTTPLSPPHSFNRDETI
Assay: SPR binding of peptides to immobilized BMPRII
Settings: for kon / koff: BMPRII immobilized on COOH5 chip (2000 RU), peptide injected 120 s at 5 μL/min, 5 min dissociation; for kon: read-out: Association Rate Constant ka; for koff: read-out: Dissociation Rate Constant kd
Method: SPR was performed using SensiQ discovery ((ICX Nomadics, Oklahoma City, OK, USA) SPR. For the affinity experiments, all the samples were dissolved in phosphate-buffered saline (PBS, pH 7.4) (UniRegion Bio-Tech, New Taipei City, Taiwan) containing 150 mM NaCl (St. Louis, MI, USA). The same buffer was also used as the running buffer. To immobilize the BMPRII, the active and reference flow cells of a COOH5 sensor chip (ICX Nomadics, Oklahoma City, OK, USA) carboxylic chip were activated with 1-ethyl-3-(3-(dimethylamino)-propyl) carbodiimide hydrochloride (EDC) and N-hydroxysuccinimide (NHS) (Cytiva, Marlborough, MA, USA) for 5 min. BMPRII protein diluted to 20 μg/mL with acetate buffer (pH4.5) (APOLO biochemical Inc., New York, NY, USA) was injected over the active cell for 3 min at 10 μL/min, resulting in an immobilization level of 2000 RU. Both the reference flow cell and active flow cell were blocked with ethanolamine (Bio Rad, Hercules, CA, USA), pH 8.5 for 6 min. The system was then switched to running buffer, and different concentrations of the peptide were injected for 120 s at 5 μL/min, with 5 min of dissociation. The binding data were analyzed using the BIA-evaluation software 3.0 (BIACORE, Uppasala, Sweden).
We first investigated the binding affinity of these five peptides for BMPRII using SPR. Each peptide was individually passed over a Sensiq […] chip pre-immobilized with BMPRII.

[1] = BMPRII immobilized on COOH5 chip, PBS pH 7.4 with 150 mM NaCl, P-02 from saturation binding curve, read-out: Equilibrium Rate Constant KD

Molecule | kon (PBS pH 7.4 with 150 mM NaCl) [M⁻¹ s⁻¹] | koff (PBS pH 7.4 with 150 mM NaCl) [s⁻¹] | Kd [1] [µM] | Kd (as printed in text b26 without unit, read-out: equilibrium rate constant (KD) against BMPRII) [µM]
CC[C@H](C)[C@H](NC(=O)[C@H](C)NC(=O)[C@H](CO)NC(=O)[C@H](CC(C)C)NC(=O)[C@H](CCC(=O)O)NC(=O)[C@@H](NC(=O)[C@@H]1CCCN1C(=O)[C@@H](NC(=O)[C@H](CO)NC(=O)[C@H](CO)NC(=O)[C@H](C)NC(=O)[C@H](CCCCN)NC(=O)[C@@H]1CCCN1C(=O)[C@@H](NC(=O)[C@@H](N)CCCCN)[C@@H](C)CC)C(C)C)[C@@H](C)O)C(=O)N[C@@H](CO)C(=O)N[C@H](C(=O)N[C@@H](CC(C)C)C(=O)N[C@@H](Cc1ccc(O)cc1)C(=O)N[C@@H](CC(C)C)C(N)=O)[C@@H](C)O [P-01] (H-KIPKASSVPTELSAISTLYL-NH2) | 0.27 | 0.0221 | – | –
CC[C@H](C)[C@@H]1NC(=O)[C@H](C)NC(=O)[C@H](CO)NC(=O)[C@H](CC(C)C)NC(=O)[C@H](CCC(=O)O)NC(=O)[C@H]([C@@H](C)O)NC(=O)[C@@H]2CCCN2C(=O)[C@H](C(C)C)NC(=O)[C@@H](NC(=O)[C@H](CO)NC(=O)[C@H](CO)NC(=O)[C@H](C)NC(=O)[C@H](CCCCN)NC(=O)[C@@H]2CCCN2C(=O)[C@@H](NC(=O)[C@@H](N)CCCCN)[C@@H](C)CC)CSSC[C@@H](C(N)=O)NC(=O)[C@H](CC(C)C)NC(=O)[C@H](Cc2ccc(O)cc2)NC(=O)[C@H](CC(C)C)NC(=O)[C@H]([C@@H](C)O)NC(=O)[C@H](CO)NC1=O [P-04] (H-KIPKASSCVPTELSAISTLYLC-NH2; disulfide 8-22) | 460 | 0.0106 | 23.1 | –
P-02: Cyclic disulfide BMP-2 peptide, N-terminal and C-terminal regions outside the cyclic structure (KIPKCSSVPTELSCISTLYL; not fully specified; Intramolecular disulfide Cys5-Cys14; probably C-terminal amide (Rink amide resin); Parent is BMP-2 mature 73-92 (offset +282) in the P) | – | – | 80.6 | 80.6
CC[C@H](C)[C@H](NC(=O)[C@H](C)NC(=O)[C@H](CO)NC(=O)[C@@H]1CSSC[C@H](N)C(=O)N[C@@H](CCCCN)C(=O)N[C@@H]([C@@H](C)CC)C(=O)N2CCC[C@H]2C(=O)N[C@@H](CCCCN)C(=O)N[C@@H](C)C(=O)N[C@@H](CO)C(=O)N[C@@H](CO)C(=O)N[C@@H](C(C)C)C(=O)N2CCC[C@H]2C(=O)N[C@@H]([C@@H](C)O)C(=O)N[C@@H](CCC(=O)O)C(=O)N[C@@H](CC(C)C)C(=O)N1)C(=O)N[C@@H](CO)C(=O)N[C@H](C(=O)N[C@@H](CC(C)C)C(=O)N[C@@H](Cc1ccc(O)cc1)C(=O)N[C@@H](CC(C)C)C(N)=O)[C@@H](C)O [P-03] (H-CKIPKASSVPTELCSAISTLYL-NH2; disulfide 1-14) | 352 | 0.0333 | – | –
CC[C@H](C)[C@@H]1NC(=O)[C@H](C)NC(=O)[C@H](CO)NC(=O)[C@H](CC(C)C)NC(=O)[C@H](CCC(=O)O)NC(=O)[C@H]([C@@H](C)O)NC(=O)[C@@H]2CCCN2C(=O)[C@H](C(C)C)NC(=O)[C@H](CO)NC(=O)[C@H](CO)NC(=O)[C@H](C)NC(=O)[C@H](CCCCN)NC(=O)[C@@H]2CCCN2C(=O)[C@H]([C@@H](C)CC)NC(=O)[C@H](CCCCN)NC(=O)[C@@H](N)CSSC[C@@H](C(N)=O)NC(=O)[C@H](CC(C)C)NC(=O)[C@H](Cc2ccc(O)cc2)NC(=O)[C@H](CC(C)C)NC(=O)[C@H]([C@@H](C)O)NC(=O)[C@H](CO)NC1=O [P-05] (H-CKIPKASSVPTELSAISTLYLC-NH2; disulfide 1-22) | 37.8 | 0.000487 | 12.9 | –
